Source: PubChem BioAssay (NCI)
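Abbreviation: GI50, concentration required for 50% inhibition of growth. At the TGI there is no net growth.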

How the values were obtained:
Test in all cases: NCI tumour cell line growth inhibition, 384-well format
HT29 colon = system: HT29 colon
NCI/ADR-RES ovarian = system: NCI/ADR-RES ovarian
HS 578T breast = system: HS 578T breast
DU-145 prostate = system: DU-145 prostate
SNB-19 CNS = system: SNB-19 CNS
MALME-3M melanoma = system: MALME-3M melanoma
OVCAR-8 ovarian = system: OVCAR-8 ovarian
MOLT-4 leukemia = system: MOLT-4 leukemia
SF-539 CNS = system: SF-539 CNS
UACC-257 melanoma = system: UACC-257 melanoma
RXF 393 renal = system: RXF 393 renal
IGROV1 ovarian = system: IGROV1 ovarian
ACHN renal = system: ACHN renal
UACC-62 melanoma = system: UACC-62 melanoma
MCF7 breast = system: MCF7 breast
SW-620 colon = system: SW-620 colon
HCT-15 colon = system: HCT-15 colon
SK-MEL-5 melanoma = system: SK-MEL-5 melanoma
T-47D breast = system: T-47D breast
M14 melanoma = system: M14 melanoma
HL-60(TB) leukemia = system: HL-60(TB) leukemia
NCI-H322M lung = system: NCI-H322M lung
EKVX NSCLC = system: EKVX NSCLC
MDA-MB-435 melanoma = system: MDA-MB-435 melanoma
CCRF-CEM leukemia = system: CCRF-CEM leukemia
786-0 renal = system: 786-0 renal
LOX IMVI melanoma = system: LOX IMVI melanoma
SN12C renal = system: SN12C renal
A498 renal = system: A498 renal

For `C=CC(=O)Nc1cccc(Oc2nc(Nc3ccc(N4CCN(C)CC4)cc3OC)ncc2Cl)c1`, the GI50 (HT29 colon) was 1650 nM, the TGI (HT29 colon) was 3020 nM and the GI50 (NCI/ADR-RES ovarian) was 1510 nM. The TGI (NCI/ADR-RES ovarian) was 2850 nM, the GI50 (HS 578T breast) was 1370 nM and the TGI (HS 578T breast) was 2670 nM. The GI50 (DU-145 prostate) was 1320 nM, the TGI (DU-145 prostate) was 3080 nM and the GI50 (SNB-19 CNS) was 2600 nM. The TGI (SNB-19 CNS) was 8340 nM, the GI50 (MALME-3M melanoma) was 1530 nM and the TGI (MALME-3M melanoma) was 2860 nM. For the same compound, the GI50 (OVCAR-8 ovarian) was 1440 nM, the TGI (OVCAR-8 ovarian) was 2760 nM and the GI50 (MOLT-4 leukemia) was 1500 nM. For the same compound, the TGI (MOLT-4 leukemia) was 2820 nM, the GI50 (SF-539 CNS) was 1540 nM and the TGI (SF-539 CNS) was 2880 nM. It also gave a GI50 (UACC-257 melanoma) of 1210 nM, a TGI (UACC-257 melanoma) of 2460 nM and a GI50 (RXF 393 renal) of 1290 nM. It also gave a TGI (RXF 393 renal) of 2570 nM, a GI50 (IGROV1 ovarian) of 754 nM and a TGI (IGROV1 ovarian) of 2040 nM. For the same compound, the GI50 (ACHN renal) was 440 nM, the TGI (ACHN renal) was 1710 nM and the GI50 (UACC-62 melanoma) was 1560 nM. For the same compound, the TGI (UACC-62 melanoma) was 2900 nM, the GI50 (MCF7 breast) was 1140 nM and the TGI (MCF7 breast) was 2360 nM. It also gave a GI50 (SW-620 colon) of 1720 nM, a TGI (SW-620 colon) of 3110 nM and a GI50 (HCT-15 colon) of 1340 nM. The TGI (HCT-15 colon) was 2640 nM, the GI50 (SK-MEL-5 melanoma) was 1570 nM and the TGI (SK-MEL-5 melanoma) was 2920 nM. The GI50 (T-47D breast) was 1110 nM, the TGI (T-47D breast) was 2320 nM and the GI50 (M14 melanoma) was 1770 nM. It also gave a TGI (M14 melanoma) of 3160 nM, a GI50 (HL-60(TB) leukemia) of 1070 nM and a TGI (HL-60(TB) leukemia) of 2260 nM. For the same compound, the GI50 (NCI-H322M lung) was 354 nM, the TGI (NCI-H322M lung) was 1670 nM and the GI50 (EKVX NSCLC) was 374 nM. The TGI (EKVX NSCLC) was 1650 nM, the GI50 (MDA-MB-435 melanoma) was 1710 nM and the TGI (MDA-MB-435 melanoma) was 3100 nM. For the same compound, the GI50 (CCRF-CEM leukemia) was 1420 nM, the TGI (CCRF-CEM leukemia) was 2720 nM and the GI50 (786-0 renal) was 1180 nM. It also gave a TGI (786-0 renal) of 2420 nM, a GI50 (LOX IMVI melanoma) of 1660 nM and a TGI (LOX IMVI melanoma) of 3030 nM. For the same compound, the GI50 (SN12C renal) was 1090 nM, the TGI (SN12C renal) was 2610 nM and the GI50 (A498 renal) was 517 nM. The TGI (A498 renal) was 1890 nM.
